Assay results reported in US4113855A, “Composition of matter and process” (The Upjohn Company, priority 1977, dated 1978).

Columns and labels:
[1] = system: P. aeruginosa Strain No. 6429; assay: standard agar disc plate assay using 6.35 mm paper discs; type: cell-based, Pseudomonas aeruginosa; conditions: for zone of inhibition at 1000 µg/mL: Pseudomonas aeruginosa, read-out: Zones of Inhibition; for Zones of Inhibition: strain 6429, 0.03 ml of 1 mg/ml per 6.35 mm disc
[2] = system: P. aeruginosa Strain No. 6430; assay: as above; type: cell-based, Pseudomonas aeruginosa; conditions: for zone of inhibition at 1000 µg/mL: Pseudomonas aeruginosa, read-out: Zones of Inhibition; for Zones of Inhibition: strain 6430, 0.03 ml of 1 mg/ml per 6.35 mm disc
[3] = system: P. aeruginosa Strain No. 6431; assay: as above; type: cell-based, Pseudomonas aeruginosa; conditions: for zone of inhibition at 1000 µg/mL: Pseudomonas aeruginosa, read-out: Zones of Inhibition; for Zones of Inhibition: strain 6431, 0.03 ml of 1 mg/ml per 6.35 mm disc
[4] = system: P. aeruginosa Strain No. 6433; assay: as above; type: cell-based, Pseudomonas aeruginosa; conditions: for Zones of Inhibition: strain 6433, 0.03 ml of 1 mg/ml per 6.35 mm disc
[5] = system: P. aeruginosa Strain No. 6434; assay: as above; type: cell-based, Pseudomonas aeruginosa; conditions: for zone of inhibition at 1000 µg/mL: Pseudomonas aeruginosa, read-out: Zones of Inhibition; for Zones of Inhibition: strain 6434, 0.03 ml of 1 mg/ml per 6.35 mm disc
[6] = system: P. aeruginosa Strain No. 6435; assay: as above; type: cell-based, Pseudomonas aeruginosa; conditions: for zone of inhibition at 1000 µg/mL: Pseudomonas aeruginosa, read-out: Zones of Inhibition; for Zones of Inhibition: strain 6435, 0.03 ml of 1 mg/ml per 6.35 mm disc
[7] = system: P. aeruginosa Strain No. 6436; assay: as above; type: cell-based, Pseudomonas aeruginosa; conditions: for zone of inhibition at 1000 µg/mL: Pseudomonas aeruginosa, read-out: Zones of Inhibition; for Zones of Inhibition: strain 6436, 0.03 ml of 1 mg/ml per 6.35 mm disc
[8] = system: Pseudomonas aeruginosa GN-315 (UC 6149); assay: antibacterial activity; type: cell-based
[9] = system: Pseudomonas aeruginosa strains obtained from Bronson Hospital; assay: antibacterial activity against hospital strains; type: cell-based; conditions: Kalamazoo
Bacillus subtillis = assay: standard disc plate assay (12.7 mm assay discs); type: cell-based; conditions: 1 mg/ml, 12.7 mm discs
Pseudomonas mildenbergii = assay: standard disc plate assay (12.7 mm assay discs); type: cell-based; conditions: 1 mg/ml, 12.7 mm discs
[10] = system: Klebsiella pneumoniae UC 57; assay: microplate broth dilution assay using nutrient broth; type: cell-based
Excerpt: (§1) On testing antibiotic 354 by a microplate broth dilution assay using nutrient broth the following spectrum was observed.

[11] = system: Klebsiella pneumoniae UC 58; assay: as above; type: cell-based
Excerpt: as §1

Proteus mirabilis = assay: as above; type: cell-based
Excerpt: as §1

[12] = system: Salmonella schottmuelleri UC 126; assay: as above; type: cell-based
Excerpt: as §1

Salmonella typhi = assay: as above; type: cell-based
Excerpt: as §1

[13] = system: Serratia marcescens UC 131; assay: as above; type: cell-based
Excerpt: as §1

[14] = system: Staphylococcus aureus UC 76; assay: as above; type: cell-based
Excerpt: as §1

[15] = system: Streptococcus fecalis UC 694; assay: as above; type: cell-based
Excerpt: as §1

[16] = system: P. aeruginosa Strain No. 6429; assay: nutrient broth dilution test; type: cell-based, Pseudomonas aeruginosa; conditions: strain 6429; 32° C., 18 hours
Protocol: (§2) Antibiotic 354 was also tested on a nutrient broth dilution test against the same Pseudomonas strains listed above. The test tubes were incubated at 32° C. for 18 hours.

[17] = system: P. aeruginosa Strain No. 6430; assay: nutrient broth dilution test; type: cell-based, Pseudomonas aeruginosa; conditions: strain 6430; 32° C., 18 hours
Protocol: as §2

[18] = system: P. aeruginosa Strain No. 6431; assay: nutrient broth dilution test; type: cell-based, Pseudomonas aeruginosa; conditions: strain 6431; 32° C., 18 hours
Protocol: as §2

[19] = system: P. aeruginosa Strain No. 6433; assay: nutrient broth dilution test; type: cell-based, Pseudomonas aeruginosa; conditions: strain 6433; 32° C., 18 hours
Protocol: as §2

[20] = system: P. aeruginosa Strain No. 6434; assay: nutrient broth dilution test; type: cell-based, Pseudomonas aeruginosa; conditions: strain 6434; 32° C., 18 hours
Protocol: as §2

[21] = system: P. aeruginosa Strain No. 6435; assay: nutrient broth dilution test; type: cell-based, Pseudomonas aeruginosa; conditions: strain 6435; 32° C., 18 hours
Protocol: as §2

[22] = system: P. aeruginosa Strain No. 6436; assay: nutrient broth dilution test; type: cell-based, Pseudomonas aeruginosa; conditions: strain 6436; 32° C., 18 hours
Protocol: as §2

[23] = system: Pseudomonas mildenbergii (UC 3029); assay: agar disc plate assay, biounits; type: cell-based; conditions: vs. UC 3029; BU = concentration giving a 20 mm zone of inhibition
Protocol: The assay is an agar disc plate assay using the microorganism P. mildenbergii. The agar medium is buffered with 0.1 M phosphate buffer at a pH of 7.4. A unit volume (0.08 ml) of solution containing the substance to be assayed is placed on a 12.7 mm paper disc which is then placed on an agar plate seeded with the assay organism. The agar plate is then incubated for 16-18 hours at 37° C. A biounit (BU) is defined as the concentration of the antibiotic which gives a 20 mm zone of inhibition under the above assay conditions.

Gram-negative bacteria = assay: antibacterial activity; type: cell-based
species of Pseudomonas = assay: antibacterial activity; type: cell-based
species of Proteus = assay: antibacterial activity; type: cell-based
basicity = type: physicochemical

With NC[C@H]1O[C@H](O[C@H]2[C@H](O)[C@@H](O[C@H]3O[C@H](CO)[C@@H](O)[C@H](N)[C@H]3O)[C@H](N)C[C@@H]2N)[C@H](O)[C@@H](O)[C@@H]1O [Kanamycin] as the compound, how does the zone of inhibition at 1000 µg/mL [1] read?
The zone of inhibition at 1000 µg/mL was 11 mm.

And the zone of inhibition at 1000 µg/mL [2]?
Its zone of inhibition at 1000 µg/mL is 11 mm.

What about the zone of inhibition at 1000 µg/mL [3] of the same compound?
Its zone of inhibition at 1000 µg/mL is 0 mm.

And the “Zones of Inhibition” value [4]?
Its value is “trace”.

What about the zone of inhibition at 1000 µg/mL [5] of the same compound?
Its zone of inhibition at 1000 µg/mL is 13 mm.

And the zone of inhibition at 1000 µg/mL [6]?
Its zone of inhibition at 1000 µg/mL is 0 mm.

What about the zone of inhibition at 1000 µg/mL [7] of the same compound?
Its zone of inhibition at 1000 µg/mL is 0 mm.

And the “activity / resistance, P. aeruginosa GN-315” value [8]?
Its value is “resistant”.

And the “activity / resistance, Bronson Hospital P. aeruginosa strains” value [9]?
Its value is “relatively resistant”.

Which “Zones of Inhibition” value [1] does the source give for Polymyxin B here?
Its value is “trace”.

What about the “Zones of Inhibition” value [2] of the same compound?
Its value is “trace”.

What about the “Zones of Inhibition” value [3] of the same compound?
The value was “trace”.

And the “Zones of Inhibition” value [4]?
The value was “trace”.

What about the “Zones of Inhibition” value [5] of the same compound?
Its value is “trace”.

And the “Zones of Inhibition” value [6]?
Its value is “trace”.

And the “Zones of Inhibition” value [7]?
Its value is 9 mm.

And the “activity / resistance, Bronson Hospital P. aeruginosa strains” value [9]?
Its value is “relatively resistant”.

What does the source list for Gentamycin?
Zones of Inhibition [1]: 14 mm; Zones of Inhibition [2]: 14 mm; Zones of Inhibition [3]: trace; Zones of Inhibition [4]: 11 mm; Zones of Inhibition [5]: 22 mm; Zones of Inhibition [6]: 13 mm; Zones of Inhibition [7]: 9 mm; activity / resistance, P. aeruginosa GN-315 [8]: resistant; activity / resistance, Bronson Hospital P. aeruginosa strains [9]: relatively resistant

Which zone of inhibition at 1000 µg/mL [1] does the source give for CCn1cc(C(=O)O)c(=O)c2ccc(C)nc21 [Nalidixic Acid] here?
Its zone of inhibition at 1000 µg/mL is 13 mm.

What about the zone of inhibition at 1000 µg/mL [2] of the same compound?
The zone of inhibition at 1000 µg/mL was 13 mm.

And the zone of inhibition at 1000 µg/mL [3]?
The zone of inhibition at 1000 µg/mL was 12 mm.

And the zone of inhibition at 1000 µg/mL ([4]; Pseudomonas aeruginosa, read-out: Zones of Inhibition)?
The zone of inhibition at 1000 µg/mL was 13 mm.

What about the zone of inhibition at 1000 µg/mL [5] of the same compound?
The zone of inhibition at 1000 µg/mL was 13 mm.

And the zone of inhibition at 1000 µg/mL [6]?
The zone of inhibition at 1000 µg/mL was 17 mm.

And the zone of inhibition at 1000 µg/mL [7]?
The zone of inhibition at 1000 µg/mL was 13 mm.

What about the “activity / resistance, P. aeruginosa GN-315” value [8] of the same compound?
Its value is “resistant”.

What about the “activity / resistance, Bronson Hospital P. aeruginosa strains” value [9] of the same compound?
The value was “relatively resistant”.

For N=C1C=C[C@@]2(O)C[C@H](Cl)CN12 [Antibiotic 354], which “Zone Of Inhibition” value (Bacillus subtillis) is on record?
Its value is 25 mm.

And the “Zone Of Inhibition” value (Pseudomonas mildenbergii)?
The value was 30 mm.

What about the “Minimum Inhibitory Concentration” value [10] of the same compound?
Its value is 31.2 µg/mL.

And the “Minimum Inhibitory Concentration” value [11]?
The value was 7.8 µg/mL.

What about the “Minimum Inhibitory Concentration” value (Proteus mirabilis) of the same compound?
The value was 31.2 µg/mL.

What about the “Minimum Inhibitory Concentration” value [12] of the same compound?
The value was 7.8 µg/mL.

And the “Minimum Inhibitory Concentration” value (Salmonella typhi)?
The value was 15.6 µg/mL.

What about the “Minimum Inhibitory Concentration” value [13] of the same compound?
The value was 3.9 µg/mL.

And the “Minimum Inhibitory Concentration” value [14]?
Its value is 31.2 µg/mL.

What about the “Minimum Inhibitory Concentration” value [15] of the same compound?
The value was 125 µg/mL.

And the “Zones of Inhibition” value [1]?
Its value is 22 mm.

And the “Zones of Inhibition” value [2]?
Its value is 33 mm.

And the “Zones of Inhibition” value [3]?
Its value is 22 mm.

And the “Zones of Inhibition” value [4]?
Its value is 21 mm.

What about the “Zones of Inhibition” value [5] of the same compound?
The value was 20 mm.

And the “Zones of Inhibition” value [6]?
Its value is 24 mm.

What about the “Zones of Inhibition” value [7] of the same compound?
Its value is 22 mm.

What about the “Minimum Inhibitory Concentration” value [16] of the same compound?
Its value is 25 µg/mL.

And the “Minimum Inhibitory Concentration” value [17]?
Its value is 25 µg/mL.

What about the “Minimum Inhibitory Concentration” value [18] of the same compound?
Its value is 25 µg/mL.

What about the “Minimum Inhibitory Concentration” value [19] of the same compound?
The value was 25 µg/mL.

What about the “Minimum Inhibitory Concentration” value [20] of the same compound?
The value was 12.5 µg/mL.

What about the “Minimum Inhibitory Concentration” value [21] of the same compound?
Its value is 12.5 µg/mL.

What about the “Minimum Inhibitory Concentration” value [22] of the same compound?
The value was 25 µg/mL.

And the potency in biounits [23]?
Its potency in biounits is 8 BU/mg.

And the “activity against Gram-negative bacteria” value (Gram-negative bacteria)?
Its value is “active”.

What about the “activity / resistance, P. aeruginosa GN-315” value [8] of the same compound?
Its value is “active”.

What about the “activity against species of Pseudomonas” value (species of Pseudomonas) of the same compound?
Its value is “very active”.

What about the “activity against species of Proteus” value (species of Proteus) of the same compound?
The value was “very active”.

And the “activity / resistance, Bronson Hospital P. aeruginosa strains” value [9]?
The value was “active”.

What about the basicity (basicity) of the same compound?
Its basicity is “strongly basic”.
